The record followed here is patent US9617237B2, “Partially saturated tricyclic compounds and methods of making and using same” (Zafgen, Inc., priority 2011, dated 2017).

Counter-ions that a name gives are not always drawn. Bounds are passed on as bounds.

In this assay the target is T1, recombinant human MetAP2 (Homo sapiens, UniProt P50579).
T1 construct: made in house; host or cells: Sf9 insect cells
T1 sequence (P50579 whole entry): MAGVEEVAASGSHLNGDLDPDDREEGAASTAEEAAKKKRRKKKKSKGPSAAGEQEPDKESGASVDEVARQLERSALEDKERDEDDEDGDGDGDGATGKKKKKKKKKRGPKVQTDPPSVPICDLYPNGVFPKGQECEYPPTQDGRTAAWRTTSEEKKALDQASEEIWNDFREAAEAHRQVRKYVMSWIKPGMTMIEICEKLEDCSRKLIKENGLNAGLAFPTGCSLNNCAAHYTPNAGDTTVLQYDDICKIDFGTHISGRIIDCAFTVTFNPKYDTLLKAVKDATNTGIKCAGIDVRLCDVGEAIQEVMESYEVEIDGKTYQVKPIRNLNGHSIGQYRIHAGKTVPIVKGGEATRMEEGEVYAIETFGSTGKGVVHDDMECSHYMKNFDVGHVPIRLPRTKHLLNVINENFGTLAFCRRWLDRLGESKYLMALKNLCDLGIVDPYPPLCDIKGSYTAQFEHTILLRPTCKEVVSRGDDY
The experiment in a line: Inhibition of recombinant human MetAP2 activity (fluorescence, MAS substrate, amino acid oxidase/Amplex red). Format: biochemical. To be noted: manganese enzyme; 0.75 mM Methionine-Alanine-Serine (MAS) substrate; 30 minutes at 25° C.; pH 7.5; 1% DMSO. Here is the method: Compounds are tested for their capacity to inhibit recombinant human MetAP2 activity using the following assay.
Human recombinant MetAP2 expressed in Sf9 cells followed by affinity purification and EDTA treatment to remove endogenous active site cation was dialysed against MnCl2 to produce the manganese enzyme used in the assay. The assay was carried out for 30 minutes at 25° C. in 50 mM HEPES buffer containing 100 mM NaCl, pH 7.5 the presence of 0.75 mM Methionine-Alanine-Serine (MAS) substrate and 50 μg/ml amino acid oxidase using a dilution of purified MetAP2 giving >3-fold signal: noise. Cleavage of the substrate by MetAP2 and oxidation of free methionine by amino acid oxidase was detected and quantified using fluorescence generated by Amplex red (10-acetyl-3,7-dihydroxyphenoxazine) in combination with horseradish peroxidase which detects H2O2 released during the oxidation step. The fluorescent signal was detected using a multiwell fluorimeter. Compounds were diluted in DMSO prior to addition to assay buffer, the final DMSO concentration in the assay being 1%.
IC50 values are calculated using the XLfit software package (version 2.0.5).
Take `CCN(CC)CCCc1cc(F)ccc1S(=O)(=O)Nc1ccc2c(c1C(=O)O)OC[C@H]1OCC[C@@H]21` (racemic) [Cis-(3aRS,9bRS)-7-[2-(3-Diethylaminopropyl)-4-fluorobenzenesulfonyl-amino]-1,3a,4,9b-tetrahydro-2H-furo[2,3-c]chromene-6-carboxylic acid]: the IC50 is 50 to 500 nM. The same measure for `O=C(O)c1c(NS(=O)(=O)c2ccc(F)cc2CCCN2CCCC2)ccc2c1OC[C@H]1OCC[C@@H]21` (racemic) [Cis-(3aRS,9bRS)-7-[2-(3-{Pyrrolidin-1-yl}propyl)-4-fluorobenzene-sulfonylamino]-1,3a,4,9b-tetrahydro-2H-furo[2,3-c]chromene-6-carboxylic acid]: below 50 nM; for `CN(C)CCCCNc1ccccc1S(=O)(=O)Nc1ccc2c(c1C(=O)O)OC[C@H]1OCC[C@@H]21` (racemic) [Cis-(3aRS,9bRS)-7-[2-(4-dimethylamino-butylamino)-benzenesulfonylamino]-1,3a,4,9b-tetrahydro-2H-furo[2,3-c]chromene-6-carboxylic acid]: 50 to 500 nM; for `CCN(CC)C/C=C\c1cc(F)ccc1S(=O)(=O)Nc1ccc2c(c1C(=O)O)OC[C@H]1OCC[C@@H]21` (racemic) [Cis-(3aRS,9bRS)-7-[2-((Z)-3-Diethylaminoprop-1-enyl)-4-fluoro-benzenesulfonylamino]-1,3a,4,9b-tetrahydro-2H-furo[2,3-c]chromene-6-carboxylic acid]: below 50 nM. With `CCN(CC)C/C=C\c1cc(F)ccc1S(=O)(=O)Nc1ccc2c(c1C(=O)O)NC[C@H]1OCC[C@@H]21` (racemic) [Cis-(3aRS,9bRS)-7-[2-((Z)-3-Diethylaminoprop-1-enyl)-4-fluorobenzenesulfonylamino]-1,2,3a,4,5,9b-hexahydrofuro[2,3-c]quinoline-6-carboxylic acid] the figure was below 50 nM. On to `CCN1CC[C@@H](Cc2cc(F)ccc2S(=O)(=O)Nc2ccc3c(c2C(=O)O)OC[C@@H]2C[C@H]32)C1` (single isomer, unassigned), for which the IC50 is below 50 nM. With `CCNC/C=C\c1cc(F)ccc1S(=O)(=O)Nc1ccc2c(c1C(=O)O)OC[C@@H]1C[C@H]21` (single isomer, unassigned) [(1aRS,7bSR)-5-[2((Z)-3-ethylaminoprop-1-enyl)-4-fluorobenzenesulfonylamino]-1,1a,2,7b-tetrahydrocyclopropa[c]chromene-4-carboxylic acid] the figure was below 50 nM.

Take `CCN(CC)CC/C=C\c1cc(F)ccc1S(=O)(=O)Nc1ccc2c(c1C(=O)O)OCC1CC21` (single isomer, unassigned) [(1aRS,7bSR)-5-[2((Z)-4-diethylaminobut-1-enyl)-4-fluorobenzenesulfonyl-amino]-1,1a,2,7b-tetrahydrocyclopropa[c]chromene-4-carboxylic acid]: the IC50 was in the range of 50 to 500 nM. The same measure for `O=C(O)c1c(NS(=O)(=O)c2ccc(F)cc2/C=C\CN2CCCC2)ccc2c1OC[C@@H]1C[C@H]21` (single isomer, unassigned) [(1aRS,7bSR)-5-{2[(Z)-3-(pyrrolidin-1-yl)prop-1-enyl]-4-fluorobenzenesulfonylamino}-1,1a,2,7b-tetrahydro-cyclopropa[c]chromene-4-carboxylic acid]: 50 to 500 nM; for `CCN(CC)C/C=C\c1cc(F)ccc1S(=O)(=O)Nc1ccc2c(c1C(=O)O)OCC1CC21` (stereo not drawn) [5-[2-((Z)-3-Diethylaminoprop-1-enyl)-4-fluorobenzenesulfonyl-amino]-1,1a,2,7b-tetrahydrocyclopropa[c]chromene-4-carboxylic acid]: below 50 nM; for `O=C(O)c1c(NS(=O)(=O)c2ccccc2)ccc2c3c(cnc12)OCC3` [7-(Benzenesulfonylamino))-1,2-dihydrofuro[2,3-c]quinoline-6-carboxylic acid formate salt]: below 50 nM. As for `CCN(CC)C/C=C\c1cc(F)ccc1S(=O)(=O)Nc1ccc2c3c(cnc2c1C(=O)O)OCC3` [7-[2-((Z)-3-Diethylaminoprop-1-enyl)-4-fluorobenzenesulfonyl-amino]-1,2-dihydrofuro[2,3-c]quinoline-6-carboxylic acid formate salt], the IC50 is below 50 nM. The same measure for `CCN(CC)C/C=C\c1cc(F)ccc1S(=O)(=O)Nc1ccc2c(c1C(=O)O)OC[C@@H]1C[C@H]21` [(1aR,7bS) 5-[2-((Z)-3-Diethylaminoprop-1-enyl)-4-fluorobenzenesulfonyl-amino]-1,1a,2,7b-tetrahydrocyclopropa[c]chromene-4-carboxylic acid]: below 50 nM; for `CCN1CCCC(Cc2cc(F)ccc2S(=O)(=O)Nc2ccc3c(c2C(=O)O)OC[C@@H]2C[C@H]32)C1` (stereo partly drawn) [(1aR,7bS)-5-[2-(1-Ethylpiperidin-3-ylmethyl)-4-fluorobenzene-sulfonylamino]-1,1a,2,7b-tetrahydrocyclopropa[c]chromene-4-carboxylic acid]: 50 to 500 nM. With `CCN(CC)CCCc1cc(F)ccc1S(=O)(=O)Nc1ccc2c(c1C(=O)O)OC[C@@H]1C[C@H]21` [(1aR,7bS)-5-[2-(3-Diethylaminopropyl)-4-fluorobenzenesulfonyl-amino]-1,1a,2,7b-tetrahydrocyclopropa[c]chromene-4-carboxylic acid] the figure was below 50 nM; with `CCN1CC[C@@H](OCc2cc(F)ccc2S(=O)(=O)Nc2ccc3c(c2C(=O)O)OC[C@@H]2C[C@H]32)C1` [(1aR,7bS)-5-[2-((R)-1-Ethylpyrrolidin-3-yloxymethyl)-4-fluoro-benzenesulfonylamino]-1,1a,2,7b-tetrahydrocyclopropa-[c]chromene-4-carboxylic acid], 50 to 500 nM. With `CCN1CC[C@H](OCc2cc(F)ccc2S(=O)(=O)Nc2ccc3c(c2C(=O)O)OC[C@@H]2C[C@H]32)C1` [(1aR,7bS)-5-[2-((S)-1-Ethylpyrrolidin-3-yloxymethyl)-4-fluoro-benzenesulfonylamino]-1,1a,2,7b-tetrahydrocyclopropa-[c]chromene-4-carboxylic acid] the figure was 50 to 500 nM; with `CCN1CCC[C@H]1CCc1cc(F)ccc1S(=O)(=O)Nc1ccc2c(c1C(=O)O)OC[C@@H]1C[C@H]21` [(1aR,7bS)-5-{2-[2-((R)-1-Ethylpyrrolidin-2-yl)ethyl]-4-fluorobenzenesulfonyl-amino}-1,1a,2,7b-tetrahydrocyclopropa-[c]chromene-4-carboxylic acid], 50 to 500 nM; with `CCN(CC)CCCCc1cc(F)ccc1S(=O)(=O)Nc1ccc2c(c1C(=O)O)OCC1CC21` (stereo not drawn) [(1aRS,7bSR)-5-[2((Z)-4-Diethylaminobutyl)-4-fluorobenzenesulfonylamino]-1,1a,2,7b-tetrahydrocyclopropa[c]chromene-4-carboxylic acid], 50 to 500 nM. With `CCN(CC)CCCNc1ccccc1S(=O)(=O)Nc1ccc2c(c1C(=O)O)OCC1CC21` (stereo not drawn) [(1aRS,7bSR)-5-[2-(3-N,N,-Diethylaminopropylamino)benzene-sulfonylamino]-1,1a,2,7b-tetrahydrocyclopropa[c]chromene-4-carboxylic acid], the IC50 is below 50 nM.

On to `O=C(O)c1c(NS(=O)(=O)c2ccc(F)cc2/C=C\CNN2CC[C@H](O)C2)ccc2c1OC[C@@H]1C[C@H]21` [(1aRS,7bSR)-5-{2[(Z)-3-((S)-3-hydroxypyrrolidin-1-y)aminoprop-1-enyl]-4-fluorobenzenesulfonylamino}-1,1a,2,7b-tetrahydrocyclopropa[c]chromene-4-carboxylic acid], for which the IC50 fell in the range of 50 to 500 nM. The same measure for `O=C(O)c1c(NS(=O)(=O)c2ccc(F)cc2CCCN2CCC2)ccc2c1OCC1CC21` (stereo not drawn) [(1aRS,7bSR)-5-{2[(Z)-3-(Azetidin-1-yl)propyl]-4-fluorobenzenesulfonylamino}-1,1a,2,7b-tetrahydrocyclopropa[c]chromene-4-carboxylic acid]: 50 to 500 nM. The same measure for `CCN(CC)C/C=C\c1cc(F)ccc1S(=O)(=O)Nc1ccc2c(c1C(=O)O)OC[C@H]1C[C@@H]21` [(1aS,7bR) 5-[2-((Z)-3-Diethylaminoprop-1-enyl)-4-fluorobenzenesulfonyl-amino]-1,1a,2,7b-tetrahydrocyclopropa[c]chromene-4-carboxylic acid]: 50 to 500 nM. With “(1aRS,7bSR)-5-{2[(Z)-3-((R)-3-Hydroxypyrrolidin-1-yl)aminoprop-1-enyl]-4-fluorobenzene-sulfonylamino}-1,1a,2,7b-tetrahydro-cyclopropa[c]chromene-4-carboxylic acid” the figure was 50 to 500 nM.
